# Laboratory results as given in US11040035B2, “3-oxo-2,6-diphenyl-2,3-dihydropyridazine-4-carboxamides” (BAYER PHARMA AKTIENGESELLSCHAFT, priority 2016, dated 2021).
# How the values were obtained:
# AHR [1] = biological target: T1, AHR (Homo sapiens, UniProt P35869); test: In vitro assay 2: agonism in human cell line (transactivation assay); details: Assay 2: AHR-luc Hum Agonism IC50 [M], no kynurenic acid, 20 hours, firefly luciferase
# T1 sequence (P35869 11-848): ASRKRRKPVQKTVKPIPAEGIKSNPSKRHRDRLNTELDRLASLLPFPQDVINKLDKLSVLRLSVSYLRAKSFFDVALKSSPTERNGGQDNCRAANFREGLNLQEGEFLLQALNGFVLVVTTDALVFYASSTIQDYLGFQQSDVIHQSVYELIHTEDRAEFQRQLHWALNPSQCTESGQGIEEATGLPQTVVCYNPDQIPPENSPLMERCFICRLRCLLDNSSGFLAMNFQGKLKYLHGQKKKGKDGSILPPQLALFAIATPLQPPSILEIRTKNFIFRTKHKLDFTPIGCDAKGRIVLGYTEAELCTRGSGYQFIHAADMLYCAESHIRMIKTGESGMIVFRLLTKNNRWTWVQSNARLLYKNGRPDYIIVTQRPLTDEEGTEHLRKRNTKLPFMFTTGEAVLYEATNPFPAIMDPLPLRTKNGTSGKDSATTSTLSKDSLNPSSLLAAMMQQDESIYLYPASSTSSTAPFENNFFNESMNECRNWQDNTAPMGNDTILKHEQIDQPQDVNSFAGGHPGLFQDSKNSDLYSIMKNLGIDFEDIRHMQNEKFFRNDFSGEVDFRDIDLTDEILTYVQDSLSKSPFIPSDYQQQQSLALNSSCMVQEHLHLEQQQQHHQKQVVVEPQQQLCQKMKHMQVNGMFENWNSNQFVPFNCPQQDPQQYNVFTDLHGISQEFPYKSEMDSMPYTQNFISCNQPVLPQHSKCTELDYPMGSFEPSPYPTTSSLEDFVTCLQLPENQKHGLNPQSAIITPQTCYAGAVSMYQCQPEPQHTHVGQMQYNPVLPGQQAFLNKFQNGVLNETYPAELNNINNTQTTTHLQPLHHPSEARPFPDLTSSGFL
# Procedure: Transactivation Assay in Human Cell Line (In Vitro Assays 1 and 2)
# Transactivation assays were carried out in U87 glioblastoma cells (ATCC) endogenously expressing AHR. In addition the cells were stably transfected with an AHR inducible firefly luciferase reporter gene construct that carried AHR-binding sites (DRE) in its promoter and a renilla reporter gene construct with constitutively active promoter.
# In Vitro Assay 2: Agonism in Human Cell Line
# Cells in medium (tryptophan free RPMI, 1% FCS, 2 mM Glutamine) were grown for 20 hours in absence (negative control) or presence of increasing concentrations of test compounds (typical dilutions: 72 pmol/L, 0.25 nmol/L, 0.89 nmol/L; 3.1 nmol/L, 11 nmol/L, 38 nmol/L, 130 nmol/L, 470 nmol/L, 1.6 μmol/L, 5.7 μmol/L and 20 μmol/L in duplicates). As positive activation control cells were incubated with 300 μM kynurenic acid. Normalization was done by positive and negative controls.
# Firefly luciferase activity was determined by the SteadyGlo Luciferase Assay System (Promega, #2520).
# AHR [2] = biological target: T1, AHR; test: In vitro assay 1: antagonism in human cell line (transactivation assay, kynurenic acid prestimulated); details: Assay 1: AHR-luc Hum Antagonism IC50 [M], 150 μM kynurenic acid, 20 hours, firefly luciferase
# [3] = system: AHR-regulated gene CYP1A1; test: In vitro assay 3: AHR-regulated CYP1A1 expression in human cell line (U937, qPCR); details: Homo sapiens, U-937, 6 h, read-out: Assay 3: Hum CYP1A1 Antagonism IC50 [M], U937 cells, 200 μM KA, 6 hours, qPCR
SMILES,IC50 (AHR [1]),IC50 (AHR [2]),IC50 [3]
"C[C@H](O)[C@H](C)NC(=O)c1cc(-c2ccc(Cl)cc2)nn(-c2cccc(F)c2)c1=O [Example 114, 6-(4-Chlorophenyl)-2-(3-fluorophenyl)-N-[(2S,3S)-3-hydroxybutan-2-yl]-3-oxo-2,3-dihydropyridazine-4-carboxamide]",> 2e-05 M,2.3e-08 M,5.27e-08 M
"O=C(N[C@H]1CCC[C@@H]1O)c1cc(-c2ccc(Cl)cc2)nn(-c2cccc(F)c2)c1=O [Example 115, 6-(4-Chlorophenyl)-2-(3-fluorophenyl)-N-[(1S,2S)-2-hydroxycyclopentyl]-3-oxo-2,3-dihydropyridazine-4-carboxamide]",> 2e-05 M,2.72e-08 M,1.31e-08 M
"CC(O)C(C)NC(=O)c1cc(-c2ccc(Cl)cc2)nn(-c2cccc(F)c2)c1=O (stereo not drawn) [Example 131, 6-(4-Chlorophenyl)-2-(3-fluorophenyl)-N-(3-hydroxybutan-2-yl]-3-oxo-2,3-dihydropyridazine-4-carboxamide]",> 2e-05 M,4.69e-08 M,8.26e-08 M
"O=C(N[C@@H]1CCCC[C@H]1O)c1cc(-c2ccc(Cl)cc2)nn(-c2cccc(F)c2)c1=O [Example 164, 6-(4-Chlorophenyl)-2-(3-fluorophenyl)-N-[(1R,2R)-2-hydroxycyclohexyl]-3-oxo-2,3-dihydropyridazine-4-carboxamide]",> 2e-05 M,5.96e-07 M,2e-06 M
"O=C(N[C@H]1COC[C@H]1O)c1cc(-c2ccc(Cl)cc2)nn(-c2cccc(F)c2)c1=O [Example 166, 6-(4-Chlorophenyl)-2-(3-fluorophenyl)-N-[(3S,4S)-4-hydroxytetrahydrofuran-3-yl]-3-oxo-2,3-dihydropyridazine-4-carboxamide]",> 2e-05 M,4.05e-08 M,4.47e-08 M
"O=C(N[C@H]1COC[C@@H]1O)c1cc(-c2ccc(Cl)cc2)nn(-c2cccc(F)c2)c1=O [Example 167, 6-(4-Chlorophenyl)-2-(3-fluorophenyl)-N-[(3S,4R)-4-hydroxytetrahydrofuran-3-yl]-3-oxo-2,3-dihydropyridazine-4-carboxamide]",> 2e-05 M,1.63e-07 M,2.03e-07 M
"CC(C)[C@@H](CO)NC(=O)c1cc(-c2ccc(OC(F)(F)F)cc2)nn(-c2cccc(F)c2)c1=O [Example 168, 2-(3-Fluorophenyl)-N-[(2S)-1-hydroxy-3-methylbutan-2-yl]-3-oxo-6-[4-(trifluoromethoxy)phenyl]-2,3-dihydropyridazine-4-carboxamide]",> 2e-05 M,6.92e-09 M,2.16e-08 M
"O=C(NC(CO)C(F)(F)F)c1cc(-c2ccc(OC(F)(F)F)cc2)nn(-c2cccc(F)c2)c1=O (stereo not drawn) [Example 169, 2-(3-Fluorophenyl)-3-oxo-N-(1,1,1-trifluoro-3-hydroxypropan-2-yl)-6-[4-(trifluoromethoxy)phenyl]-2,3-dihydropyridazine-4-carboxamide]",> 2e-05 M,1.11e-08 M,1.35e-08 M
"CC[C@@H](CO)NC(=O)c1cc(-c2ccc(OC(F)(F)F)cc2)nn(-c2cccc(F)c2)c1=O [Example 172, 2-(3-Fluorophenyl)-N-[(2S)-1-hydroxybutan-2-yl]-3-oxo-6-[4-(trifluoromethoxy)phenyl]-2,3-dihydropyridazine-4-carboxamide]",> 2e-05 M,2.63e-08 M,2.68e-08 M
"C[C@@H](CO)NC(=O)c1cc(-c2ccc(OC(F)(F)F)cc2)nn(-c2cccc(F)c2)c1=O [Example 173, 2-(3-Fluorophenyl)-N-[(2S)-1-hydroxypropan-2-yl]-3-oxo-6-[4-(trifluoromethoxy)phenyl]-2,3-dihydropyridazine-4-carboxamide]",> 2e-05 M,3.31e-08 M,9.1e-08 M
"O=C(NCC(O)C(F)(F)F)c1cc(-c2ccc(OC(F)(F)F)cc2)nn(-c2cccc(F)c2)c1=O (stereo not drawn) [Example 182, 2-(3-Fluorophenyl)-3-oxo-N-(3,3,3-trifluoro-2-hydroxypropyl)-6-[4-(trifluoromethoxy)phenyl]-2,3-dihydropyridazine-4-carboxamide]",> 2e-05 M,3.41e-08 M,5.9e-08 M
